Data as given in article PMC8470274, “Comprehensive Investigation of Stereoselective Food Drug Interaction Potential of Resveratrol on Nine P450 and Six UGT Isoforms in Human Liver Microsomes” (Pharmaceutics, 2021).
Read-outs that look alike come from different tables or passages of the source.

Legend:
[1] = biological target: T1, CYP2A6 (Homo sapiens, UniProt P11509); assay: HLM substrate cocktail, LC-MS/MS; format: biochemical; conditions: coumarin 1 µM; NADPH-generating system; 0.25 mg/mL HLM; 37 °C; without 30 min preincubation; read-out: Trans-resveratrol (μM) / Without Preincubation
T1 construct: native enzyme in pooled human liver microsomes, read by coumarin 7-hydroxylation
T1 sequence (P11509 1-494): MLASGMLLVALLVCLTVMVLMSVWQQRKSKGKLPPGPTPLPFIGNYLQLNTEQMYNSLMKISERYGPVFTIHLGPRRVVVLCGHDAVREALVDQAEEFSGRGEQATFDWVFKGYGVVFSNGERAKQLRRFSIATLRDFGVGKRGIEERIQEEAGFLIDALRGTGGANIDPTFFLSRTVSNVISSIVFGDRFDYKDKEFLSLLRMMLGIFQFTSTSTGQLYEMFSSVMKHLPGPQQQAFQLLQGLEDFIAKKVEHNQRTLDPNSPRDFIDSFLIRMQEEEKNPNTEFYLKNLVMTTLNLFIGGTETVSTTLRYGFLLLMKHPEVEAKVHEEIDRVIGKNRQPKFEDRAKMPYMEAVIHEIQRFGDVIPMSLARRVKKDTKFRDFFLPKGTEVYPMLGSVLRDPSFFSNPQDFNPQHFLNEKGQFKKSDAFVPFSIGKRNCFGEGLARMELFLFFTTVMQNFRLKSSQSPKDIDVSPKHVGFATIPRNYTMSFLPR
Description: HLM substrate cocktail, LC-MS/MS on CYP2A6

[2] = biological target: T2, UGT1A4 (Homo sapiens, UniProt P22310); assay: HLM UGT substrate cocktail, LC-MS/MS; format: biochemical; conditions: trifluoperazine 0.5 µM; UDPGA 5 mM; alamethicin; 0.25 mg/mL HLM; 37 °C; read-out: Trans-Resveratrol
T2 construct: native enzyme in pooled human liver microsomes (alamethicin-treated), read by trifluoperazine glucuronidation
T2 sequence (P22310 29-534): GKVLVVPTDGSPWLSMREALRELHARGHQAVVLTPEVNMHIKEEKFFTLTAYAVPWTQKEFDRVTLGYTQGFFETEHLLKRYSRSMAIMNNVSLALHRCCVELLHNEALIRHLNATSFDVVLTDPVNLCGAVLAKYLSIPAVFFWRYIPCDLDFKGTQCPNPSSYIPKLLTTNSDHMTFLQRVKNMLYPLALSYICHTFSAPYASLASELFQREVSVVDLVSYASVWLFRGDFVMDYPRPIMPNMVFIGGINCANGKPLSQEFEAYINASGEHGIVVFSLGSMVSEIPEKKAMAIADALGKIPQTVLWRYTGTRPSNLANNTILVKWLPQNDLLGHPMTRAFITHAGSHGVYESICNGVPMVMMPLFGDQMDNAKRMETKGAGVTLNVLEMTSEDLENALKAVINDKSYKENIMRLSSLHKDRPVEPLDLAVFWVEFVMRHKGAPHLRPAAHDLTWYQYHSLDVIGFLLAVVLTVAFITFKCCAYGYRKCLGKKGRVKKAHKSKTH
Description: HLM UGT substrate cocktail, LC-MS/MS on UGT1A4

[3] = biological target: T3, UGT2B7 (Homo sapiens, UniProt P16662); assay: HLM UGT substrate cocktail, LC-MS/MS; format: biochemical; conditions: naloxone 0.2 µM; UDPGA 5 mM; alamethicin; 0.25 mg/mL HLM; 37 °C; read-out: Trans-Resveratrol
T3 construct: native enzyme in pooled human liver microsomes (alamethicin-treated), read by naloxone glucuronidation
T3 sequence (P16662 24-529): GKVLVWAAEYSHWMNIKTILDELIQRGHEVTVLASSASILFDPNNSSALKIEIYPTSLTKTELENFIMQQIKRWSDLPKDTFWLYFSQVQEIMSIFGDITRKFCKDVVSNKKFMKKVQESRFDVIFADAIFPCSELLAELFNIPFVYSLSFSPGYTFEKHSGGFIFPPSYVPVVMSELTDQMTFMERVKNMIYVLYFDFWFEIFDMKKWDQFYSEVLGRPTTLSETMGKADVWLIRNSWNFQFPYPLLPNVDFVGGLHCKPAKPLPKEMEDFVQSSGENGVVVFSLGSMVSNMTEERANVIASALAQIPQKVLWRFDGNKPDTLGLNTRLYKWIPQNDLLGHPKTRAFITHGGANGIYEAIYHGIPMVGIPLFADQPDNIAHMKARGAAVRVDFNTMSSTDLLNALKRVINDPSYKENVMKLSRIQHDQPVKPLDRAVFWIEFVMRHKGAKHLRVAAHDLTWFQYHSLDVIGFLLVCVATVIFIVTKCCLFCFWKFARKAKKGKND
Description: HLM UGT substrate cocktail, LC-MS/MS on UGT2B7

[4] = biological target: T4, UGT1A6 (Homo sapiens, UniProt P19224); assay: HLM UGT substrate cocktail, LC-MS/MS; format: biochemical; conditions: N-acetylserotonin 1 µM; UDPGA 5 mM; alamethicin; 0.25 mg/mL HLM; 37 °C; read-out: Trans-Resveratrol
T4 construct: native enzyme in pooled human liver microsomes (alamethicin-treated), read by N-acetylserotonin glucuronidation
T4 sequence (P19224 27-532): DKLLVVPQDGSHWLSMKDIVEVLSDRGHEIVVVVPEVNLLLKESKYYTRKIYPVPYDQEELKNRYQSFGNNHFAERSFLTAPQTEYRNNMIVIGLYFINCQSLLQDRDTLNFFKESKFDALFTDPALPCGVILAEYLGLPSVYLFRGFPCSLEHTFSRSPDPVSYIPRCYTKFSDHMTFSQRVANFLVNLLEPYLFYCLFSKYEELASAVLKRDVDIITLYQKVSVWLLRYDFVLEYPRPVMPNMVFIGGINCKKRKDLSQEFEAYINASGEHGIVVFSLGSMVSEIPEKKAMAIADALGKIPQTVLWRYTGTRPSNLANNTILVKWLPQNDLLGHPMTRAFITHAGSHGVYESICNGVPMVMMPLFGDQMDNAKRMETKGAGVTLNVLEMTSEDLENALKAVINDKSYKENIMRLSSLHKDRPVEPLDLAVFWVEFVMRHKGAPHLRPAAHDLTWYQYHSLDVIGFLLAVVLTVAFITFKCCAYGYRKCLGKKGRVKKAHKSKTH
Description: HLM UGT substrate cocktail, LC-MS/MS on UGT1A6

[5] = biological target: T5, UGT1A3 (Homo sapiens, UniProt P35503); assay: HLM UGT substrate cocktail, LC-MS/MS; format: biochemical; conditions: chenodeoxycholic acid 2 µM; UDPGA 5 mM; alamethicin; 0.25 mg/mL HLM; 37 °C; read-out: Trans-Resveratrol
T5 construct: native enzyme in pooled human liver microsomes (alamethicin-treated), read by chenodeoxycholic acid 24-glucuronidation
T5 sequence (P35503 29-534): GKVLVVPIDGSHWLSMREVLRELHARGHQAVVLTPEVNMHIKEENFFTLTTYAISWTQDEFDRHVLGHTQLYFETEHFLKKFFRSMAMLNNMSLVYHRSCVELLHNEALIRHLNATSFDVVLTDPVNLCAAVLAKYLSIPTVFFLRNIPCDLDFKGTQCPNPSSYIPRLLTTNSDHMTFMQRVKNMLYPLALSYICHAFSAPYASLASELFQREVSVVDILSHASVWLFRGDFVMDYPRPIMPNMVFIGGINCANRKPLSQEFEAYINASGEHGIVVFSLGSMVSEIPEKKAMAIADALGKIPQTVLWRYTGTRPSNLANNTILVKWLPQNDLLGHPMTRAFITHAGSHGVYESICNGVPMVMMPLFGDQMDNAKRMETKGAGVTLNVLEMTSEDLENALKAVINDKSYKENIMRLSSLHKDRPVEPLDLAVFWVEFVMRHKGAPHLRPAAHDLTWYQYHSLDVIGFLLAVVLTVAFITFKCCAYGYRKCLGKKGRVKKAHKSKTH
Description: HLM UGT substrate cocktail, LC-MS/MS on UGT1A3

[6] = system: T6, CYP3A; assay: HLM substrate cocktail, LC-MS/MS; format: biochemical, Homo sapiens; conditions: midazolam 0.1 µM, NADPH-generating system, 0.25 mg/mL HLM, 37 °C, without 30 min preincubation
T6 construct: gene CYP3A4; native CYP3A in pooled human liver microsomes, read by midazolam 1'-hydroxylation (nifedipine as second probe)
Description: HLM substrate cocktail, LC-MS/MS on CYP3A

[7] = biological target: T7, UGT1A1 (Homo sapiens, UniProt P22309); assay: HLM UGT substrate cocktail, LC-MS/MS; format: biochemical; conditions: SN-38 0.5 µM, UDPGA 5 mM, alamethicin, 0.25 mg/mL HLM, 37 °C
T7 construct: native enzyme in pooled human liver microsomes (alamethicin-treated), read by SN-38 glucuronidation
T7 sequence (P22309 26-533): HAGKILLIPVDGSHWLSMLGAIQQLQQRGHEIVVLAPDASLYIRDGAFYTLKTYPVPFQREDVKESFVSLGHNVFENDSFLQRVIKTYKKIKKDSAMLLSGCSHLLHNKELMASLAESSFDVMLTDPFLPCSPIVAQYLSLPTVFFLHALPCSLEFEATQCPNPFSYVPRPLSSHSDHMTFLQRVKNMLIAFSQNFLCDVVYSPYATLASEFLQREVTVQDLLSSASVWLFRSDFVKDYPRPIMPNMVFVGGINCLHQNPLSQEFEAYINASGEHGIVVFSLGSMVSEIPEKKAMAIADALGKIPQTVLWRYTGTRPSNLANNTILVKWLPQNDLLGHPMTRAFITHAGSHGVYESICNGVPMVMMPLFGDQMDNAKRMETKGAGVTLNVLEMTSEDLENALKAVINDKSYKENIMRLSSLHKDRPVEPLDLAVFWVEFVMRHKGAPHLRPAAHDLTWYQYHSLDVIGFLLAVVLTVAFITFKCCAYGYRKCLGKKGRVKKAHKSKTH
Description: HLM UGT substrate cocktail, LC-MS/MS on UGT1A1

[8] = biological target: T8, UGT1A9 (Homo sapiens, UniProt O60656); assay: HLM UGT substrate cocktail, LC-MS/MS; format: biochemical; conditions: mycophenolic acid 0.2 µM; UDPGA 5 mM; alamethicin; 0.25 mg/mL HLM; 37 °C; read-out: Trans-Resveratrol
T8 construct: native enzyme in pooled human liver microsomes (alamethicin-treated), read by mycophenolic acid glucuronidation
T8 sequence (O60656 26-530): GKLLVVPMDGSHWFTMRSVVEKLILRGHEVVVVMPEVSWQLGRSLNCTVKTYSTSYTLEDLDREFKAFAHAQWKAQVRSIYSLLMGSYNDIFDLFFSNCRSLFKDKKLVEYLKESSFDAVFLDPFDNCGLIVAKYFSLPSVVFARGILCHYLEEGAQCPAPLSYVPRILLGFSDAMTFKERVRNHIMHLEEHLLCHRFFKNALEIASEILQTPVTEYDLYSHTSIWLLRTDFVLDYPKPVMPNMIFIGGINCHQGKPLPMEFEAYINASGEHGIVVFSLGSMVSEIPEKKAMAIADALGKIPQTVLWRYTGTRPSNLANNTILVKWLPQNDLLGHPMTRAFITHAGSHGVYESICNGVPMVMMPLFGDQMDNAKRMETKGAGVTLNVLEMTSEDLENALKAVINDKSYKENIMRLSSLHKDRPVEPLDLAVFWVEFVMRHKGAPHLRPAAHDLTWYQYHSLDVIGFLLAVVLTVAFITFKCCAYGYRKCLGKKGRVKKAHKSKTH
Description: HLM UGT substrate cocktail, LC-MS/MS on UGT1A9

[9] = biological target: T6, CYP3A; assay: HLM inhibition kinetics, Dixon / Lineweaver-Burk, LC-MS/MS; format: biochemical, Homo sapiens; conditions: midazolam 0.1-2 µM; NADPH-generating system; without preincubation; noncompetitive; read-out: trans-Resveratrol / Without Preincubation / Ki
[10] = biological target: T7, UGT1A1; assay: as above; format: biochemical; conditions: SN-38 0.5-10 µM; UDPGA; noncompetitive; read-out: trans-Resveratrol / Without Preincubation / Ki
Description: HLM inhibition kinetics, Dixon / Lineweaver-Burk, LC-MS/MS on UGT1A1

In the case of `Oc1ccc(/C=C\c2cc(O)cc(O)c2)cc1` [B, 3,5,4′-Trihydroxystilbene], the IC50 [1] is reported as > 50 µM, the IC50 [2] is reported as > 50 µM and the IC50 [3] is reported as > 50 µM. The IC50 [4] was > 50 µM, the IC50 [5] was > 50 µM and the IC50 ([6]; read-out: Cis-resveratrol (μM) / Without Preincubation) was > 50 µM. For the same molecule, the IC50 ([7]; read-out: Cis-Resveratrol) was > 50 µM and the IC50 [8] was > 50 µM.

`Oc1ccc(/C=C/c2cc(O)cc(O)c2)cc1` [A, 3,5,4′-Trihydroxystilbene] was tested, and the IC50 [1] was > 50 µM, the Ki [9] was 23.8 ± 2.3 µM and the IC50 [2] was > 50 µM. For the same molecule, the IC50 [3] was > 50 µM, the IC50 [4] was > 50 µM and the IC50 [5] was > 50 µM. For the same molecule, the IC50 ([6]; read-out: Trans-resveratrol (μM) / Without Preincubation) was 29.2 ± 4.5 µM, the IC50 ([7]; read-out: Trans-Resveratrol) was 9.57 ± 1.6 µM and the IC50 [8] was > 50 µM. The Ki [10] was 27.4 ± 3.6 µM.
